According to PMC10287695, “Non-covalent inhibitors of thioredoxin glutathione reductase with schistosomicidal activity in vivo” (Nature Communications, 2023):
Values joined by “and” are separate entries in the source; they are usually repeats but may differ in a detail not shown here. Identical values can stand only once.

How the values were obtained:
[1] = molecular target: T1, Human GR (Homo sapiens, UniProt P00390); assay: Human GR enzyme inhibition (GSSG reduction, NADPH oxidation); assay type: biochemical; conditions: 66.7 µM
T1 construct: made in house
T1 sequence (P00390 44-522): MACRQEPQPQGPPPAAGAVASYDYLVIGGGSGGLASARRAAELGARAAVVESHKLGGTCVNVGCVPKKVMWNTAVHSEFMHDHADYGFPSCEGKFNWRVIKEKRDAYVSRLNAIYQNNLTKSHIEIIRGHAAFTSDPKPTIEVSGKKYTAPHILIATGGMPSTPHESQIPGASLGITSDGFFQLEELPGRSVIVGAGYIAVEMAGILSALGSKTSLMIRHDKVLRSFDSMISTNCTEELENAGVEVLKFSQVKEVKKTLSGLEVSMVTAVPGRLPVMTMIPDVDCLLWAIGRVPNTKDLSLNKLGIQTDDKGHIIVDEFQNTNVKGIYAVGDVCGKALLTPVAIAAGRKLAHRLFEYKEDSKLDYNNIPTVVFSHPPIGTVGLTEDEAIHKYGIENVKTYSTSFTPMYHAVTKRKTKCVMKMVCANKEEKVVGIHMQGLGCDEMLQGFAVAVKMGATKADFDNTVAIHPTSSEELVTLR
Experimental: Recombinant TGR, human TrxR1, B. malayi (Bm)TrxR and human GR proteins were expressed and purified as described[20],[69],[79]. The codon optimized sequence for P. falciparum (PfTrxR, https://www.ncbi.nlm.nih.gov/protein/CAA60574.1/) with an N-terminal 6-His tag was synthesized and inserted into pET15b (GenScript) and expressed in BL21 (DE3) cells and purified as described for human GR[20]. TGR and TrxR enzyme inhibition assays were performed in triplicate at 25 °C as described[20] in 0.1 M potassium phosphate (pH 7.4), 10 mM EDTA, 100 µM NADPH and 0.01% Tween-20. TGR, human TrxR1 and BmTrxR (all at 4 nM) and PfTrxR (50 nM) were preincubated with the compounds for 15 min. The reaction was started with addition of an equal volume of DTNB (6 mM) and NADPH (100 µM) and the increase in A412 during the first 3 min was recorded. […] […] Activity was initiated with the addition of 1 mM GSSG and 100 μM NADPH and initial rates of NADPH oxidation were monitored at 340 nm. The reactions were done in triplicate. The IC50 was calculated in GraphPad Prism.

[2] = tested on: S. mansoni adult worms; assay: GSH/GSSG ratio in ex vivo adult worms; assay type: cell-based; conditions: 1 hr; second data set (r136-144), baseline 63.5617, DMSO 63.4928
Experimental: We assessed GSH/GSSG levels experimentally by treating S. mansoni adult worms with 50 µM of compounds, or respective controls 5 µM Auranofin, 50 µM PZQ or 50 µM MZM and 0.01% DMSO for 3 h. Worm homogenate was prepared by washing three times with PBS to remove residual compounds and ten volumes of ice cold 5% sulfosalicylic acid was added. Worms were manually homogenized on ice using VWR Pellet Mixer Adaptor. The worm suspension was centrifuged at 14000 × g, 4 °C for 10 min and the acid supernatants transferred. An equal volume of ice-cold neutralization buffer (500 mM HEPES, pH 8.0) was added to the acid supernatants.
GSH/GSSG assay was performed by diluting the acid supernatant (5-fold) with ice-cold dilution buffer (250 mM HEPES, pH 7.5). Using white opaque luminescence plate on ice, 25 µl of the diluted worm acid supernatant was added each well in triplicates. Total glutathione lysis reagent and GSSG lysis reagent, which contains alkylating agent N-ethylmaleimide (25 mM) were prepared following manufactures protocol and added to respective wells along with blank for background. Total glutathione lysis reagent or oxidized glutathione lysis reagent (25 µl) was added to respective wells containing worm acid supernatants and the plate was shaken for 5 min. Luciferin generation reagent (LGR) (50 µl) was added to all wells, briefly shaken and incubated at room temperature for 30 min. Luciferin detection reagent (LDR) (100 µl) was added to all wells, briefly shaken and incubated for 15 min at room temperature and the luminescence measured using microplate imager (BioTek Cytation3). GSH/GSSH ratio for DMSO control and compounds were calculated using (Net DMSO total glutathione RFU) – (Net DMSO GSSG RFU)/ (Net DMSO GSSG RFU)/2 and (Net inhibitor total glutathione RFU) – (Net inhibitor GSSG RFU)/ (Net inhibitor GSSG RFU)/2 respectively.

[3] = molecular target: BmTrxR (Brugia malayi, UniProt A0A1I9G0T9); assay: B. malayi TrxR enzyme inhibition; assay type: biochemical
BmTrxR, sequence (A0A1I9G0T9 entry or part of it, added parts left off): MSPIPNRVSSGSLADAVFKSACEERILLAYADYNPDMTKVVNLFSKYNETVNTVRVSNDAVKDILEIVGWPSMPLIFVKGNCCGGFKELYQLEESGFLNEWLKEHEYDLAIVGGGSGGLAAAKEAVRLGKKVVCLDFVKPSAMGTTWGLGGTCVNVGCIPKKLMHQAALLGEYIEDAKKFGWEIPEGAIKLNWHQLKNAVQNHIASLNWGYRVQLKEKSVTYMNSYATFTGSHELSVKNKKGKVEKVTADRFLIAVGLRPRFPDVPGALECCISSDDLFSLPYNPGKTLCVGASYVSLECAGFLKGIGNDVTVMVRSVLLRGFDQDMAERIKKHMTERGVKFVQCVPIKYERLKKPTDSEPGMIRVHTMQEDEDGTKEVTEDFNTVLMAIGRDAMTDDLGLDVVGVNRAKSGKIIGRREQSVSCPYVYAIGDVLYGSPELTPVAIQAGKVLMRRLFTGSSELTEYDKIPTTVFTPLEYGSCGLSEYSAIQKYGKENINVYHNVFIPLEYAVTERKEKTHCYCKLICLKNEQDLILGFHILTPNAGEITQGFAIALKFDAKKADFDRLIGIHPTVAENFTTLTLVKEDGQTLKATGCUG
Experimental: Recombinant TGR, human TrxR1, B. malayi (Bm)TrxR and human GR proteins were expressed and purified as described[20],[69],[79]. The codon optimized sequence for P. falciparum (PfTrxR, https://www.ncbi.nlm.nih.gov/protein/CAA60574.1/) with an N-terminal 6-His tag was synthesized and inserted into pET15b (GenScript) and expressed in BL21 (DE3) cells and purified as described for human GR[20]. […] The reaction was started with addition of an equal volume of DTNB (6 mM) and NADPH (100 µM) and the increase in A412 during the first 3 min was recorded. […] Activity was initiated with the addition of 1 mM GSSG and 100 μM NADPH and initial rates of NADPH oxidation were monitored at 340 nm. The reactions were done in triplicate. The IC50 was calculated in GraphPad Prism.

[4] = molecular target: T2, PfTrxR (Plasmodium falciparum, UniProt Q25861); assay: P. falciparum TrxR enzyme inhibition; assay type: biochemical
T2 construct: 6-His (N); made in house; host or cells: E. coli BL21 (DE3)
T2 sequence (Q25861 1-541): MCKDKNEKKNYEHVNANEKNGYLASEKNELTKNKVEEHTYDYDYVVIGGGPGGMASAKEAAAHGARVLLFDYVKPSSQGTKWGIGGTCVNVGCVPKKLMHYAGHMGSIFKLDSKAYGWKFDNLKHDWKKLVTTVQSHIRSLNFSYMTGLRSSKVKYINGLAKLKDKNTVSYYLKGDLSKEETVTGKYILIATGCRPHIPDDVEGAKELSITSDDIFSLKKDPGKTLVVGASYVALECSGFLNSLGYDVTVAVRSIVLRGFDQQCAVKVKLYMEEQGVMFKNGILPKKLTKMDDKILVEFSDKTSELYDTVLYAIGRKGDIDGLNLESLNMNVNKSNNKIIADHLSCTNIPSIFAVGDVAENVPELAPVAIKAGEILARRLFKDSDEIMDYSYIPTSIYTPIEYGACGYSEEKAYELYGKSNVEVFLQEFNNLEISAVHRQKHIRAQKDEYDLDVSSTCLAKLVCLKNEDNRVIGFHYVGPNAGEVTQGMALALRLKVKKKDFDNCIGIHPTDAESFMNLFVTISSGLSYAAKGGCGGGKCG
Experimental: Recombinant TGR, human TrxR1, B. malayi (Bm)TrxR and human GR proteins were expressed and purified as described[20],[69],[79]. The codon optimized sequence for P. falciparum (PfTrxR, https://www.ncbi.nlm.nih.gov/protein/CAA60574.1/) with an N-terminal 6-His tag was synthesized and inserted into pET15b (GenScript) and expressed in BL21 (DE3) cells and purified as described for human GR[20]. TGR and TrxR enzyme inhibition assays were performed in triplicate at 25 °C as described[20] in 0.1 M potassium phosphate (pH 7.4), 10 mM EDTA, 100 µM NADPH and 0.01% Tween-20. TGR, human TrxR1 and BmTrxR (all at 4 nM) and PfTrxR (50 nM) were preincubated with the compounds for 15 min. The reaction was started with addition of an equal volume of DTNB (6 mM) and NADPH (100 µM) and the increase in A412 during the first 3 min was recorded. […] The reaction was preincubated for 15 min. Activity was initiated with the addition of 1 mM GSSG and 100 μM NADPH and initial rates of NADPH oxidation were monitored at 340 nm. The reactions were done in triplicate. The IC50 was calculated in GraphPad Prism.

[5] = molecular target: T3, TGR (Schistosoma mansoni, UniProt Q962Y6, X597U); assay: Superoxide production (pyrogallol red); assay type: biochemical, S. mansoni; conditions: replicates
T3 construct: made in house
Experimental: The production of superoxide by TGR was determined by monitoring reaction of superoxide with pyrogallol red[80]. Briefly, a 1 ml reaction mix (500 nM TGR, 100 µM NADPH, and 20–50 µM inhibitor) was incubated at room temperature for 30 min for fast inhibitors, or 2 h for slow inhibitors. For irreversible inhibitor controls TRi-1 (synthesized in house as reported[45]), Stattic (Cayman Chemical), and AF (Cayman Chemical), the samples were desalted using a Zeba spin desalting column. 100 µL of sample was combined with pyrogallol buffer with and without superoxide dismutase (SOD) (50 µM pyrogallol red, 300 µM NADPH; ± 10 units SOD). The reaction was measured at A340 and A540 simultaneously for 2 h.

[6] = molecular target: T4, TGR (Schistosoma mansoni, UniProt Q962Y6); assay: Reversibility by jump dilution; assay type: biochemical
T4 construct: made in house
T4 sequence (Q962Y6 1-598): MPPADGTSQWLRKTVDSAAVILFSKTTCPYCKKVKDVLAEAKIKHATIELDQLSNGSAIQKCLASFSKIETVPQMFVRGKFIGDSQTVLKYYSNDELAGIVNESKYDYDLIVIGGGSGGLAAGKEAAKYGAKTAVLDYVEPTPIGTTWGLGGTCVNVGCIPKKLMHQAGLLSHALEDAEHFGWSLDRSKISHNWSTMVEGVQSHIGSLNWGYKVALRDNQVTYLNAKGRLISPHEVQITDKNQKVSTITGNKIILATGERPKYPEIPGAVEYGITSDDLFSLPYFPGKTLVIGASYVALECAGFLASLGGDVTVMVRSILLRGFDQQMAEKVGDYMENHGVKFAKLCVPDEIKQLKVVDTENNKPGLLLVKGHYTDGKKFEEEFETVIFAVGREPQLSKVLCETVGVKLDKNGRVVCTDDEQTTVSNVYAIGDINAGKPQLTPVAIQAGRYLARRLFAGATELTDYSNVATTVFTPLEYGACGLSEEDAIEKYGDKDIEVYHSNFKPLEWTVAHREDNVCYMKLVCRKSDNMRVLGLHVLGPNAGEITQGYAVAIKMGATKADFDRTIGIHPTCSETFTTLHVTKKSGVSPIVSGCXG
Experimental: A reaction of 370 nM TGR, 100 µM NADPH, and 250 µM inhibitor was incubated for 15 min at room temperature. A 100x dilution of the reaction was made and the activity was determined immediately and after 60 min.

[7] = molecular target: T3, TGR; assay: NADPH consumption (oxidase activity); assay type: biochemical, S. mansoni
Experimental: TRi-1, Stattic (both at 50 µM) and AF (20 µM) were incubated with 1 ml of 500 nM TGR and 100 µM NADPH in TGR reaction buffer for 30 min. The samples were desalted using a Zeba spin desalting column (Thermo Fisher Scientific) and 100 µl of the desalted sample was combined with 100 µl of 100 µM NADPH. NADPH consumption was monitored at 340 nm in triplicate. Compounds 1, 4, 6, and 7 (50 µM) were tested in the same fashion without the desalting step and with a first incubation step of 30 min for 6 and 7 and 2 h for 1 and 4.

[8] = D0: diluted 1:100, activity determined immediately, list for plotting
[9] = D60: diluted 1:100, activity determined after 60 min, list for plotting

C[C@@H]1[C@H]2C[C@@H](C[C@H]1NC(=O)Cc1nc3ccccc3n1C1CCCCC1)C2(C)C [Compound 10] was tested, and the “Human GR (inhibition at 66.7 µM)” value [1] was “n.i”, the “Ratio GSH/GSSG” value [2] was 63.3816 and the inhibition at 1 µM ([3]; BmTrxR, 1 µM compound, mean of 3 replicates) was 27.9%. The inhibition at 5 µM ([3]; BmTrxR, 5 µM compound, mean of 3 replicates) was 68%, the inhibition at 15 µM ([3]; BmTrxR, 15 µM compound, mean of 3 replicates) was 100% and the inhibition at 30 µM ([3]; BmTrxR, 30 µM compound, mean of 3 replicates) was 108%. The inhibition at 66.7 µM ([3]; BmTrxR, 66.7 µM compound, mean of 3 replicates) was 106%, the IC50 ([3]; read-out: BmTrxR IC50) was 2.5 µM and the IC50 [4] was 32.9 ± 4.46 µM. For the same compound, the inhibition at 1 µM [4] was 3.2%, the inhibition at 5 µM [4] was 6.15% and the inhibition at 15 µM [4] was 29.7%. It also gave an inhibition at 30 µM [4] of 48.5% and an inhibition at 66.7 µM [4] of 66.9%.

With O=[N+]([O-])c1ccc2c(c1)S(=O)(=O)C=C2 [Stattic, reference compound] the “Superoxide production, Pyrogallol red consumption monitored ΔA540” value ([5]; condition not given) was -0.005958 and -0.005844 and -0.006065, the “Superoxide production, Pyrogallol red consumption monitored ΔA540” value ([5]; second of the two columns per substance (condition not given)) was -6.328e-5 and -6.968e-5 and -6.397e-5 and the “reversibility of TGR inhibition” value ([6]; 250 µM inhibitor, 100-fold jump dilution) was “irreversible”. For the same compound, the “% Activity (ID list), D0” value [6, 8] was 1.1% and 0.9% and -0.249%, the “% Inhibition (ID list), D0” value [6, 8] was 98.9% and 99.1% and 100.2% and the “% Activity (ID list), D60” value [6, 9] was -0.15% and 2.9% and 1.8%. The “% Inhibition (ID list), D60” value [6, 9] was 100.1% and 97.1% and 98.2%, the “% Activity, 0 min” value ([6]; [0, D0]: 15 min preincubation inhibitor + TGR + NADPH, diluted 1:100, then activity determined immediately, relative to DMSO) was 1.12% and 0.8821% and -0.2494% and the “% Activity, 60 min” value ([6]; [60, D60]: 15 min preincubation inhibitor + TGR + NADPH, diluted 1:100, then activity determined after 60 min, relative to DMSO) was -0.1498% and 2.864% and 1.829%. The “Inhibitor (rate), -15” value ([6]; [-15]: 15 min preincubation inhibitor + TGR + NADPH, then activity determined, raw rate, replicates) was 0.0007 and 0.0003 and -0.0004, the “% Activity, -15” value ([6]; [-15]: 15 min preincubation inhibitor + TGR + NADPH, then activity determined, relative to DMSO, replicates) was 1.077% and 0.4412% and -0.5874% and the “% Inhibition (ID list)” value ([6]; before dilution (-15), list for plotting) was 100.5% and 100.0% and 98.7%. For the same compound, the “NADPH consumption by TGR after exposure” value [7] was “converted TGR to a pro-oxidant enzyme” and the “NADPH consumption (rate/ΔOD340)” value ([7]; replicates) was -0.002179 and -0.002159 and -0.002209.
